Columns and labels:
RNA virus R17 = test: Inactivation of RNA virus R17, plaque titer on E. coli lawn; type: cell-based, R17 phage
[1] = Ziv and Heavner 1984; cited from earlier work
[2] = sheep, cited from earlier work
Toxicity in Vero cells = type: cell-based; details: African green monkey
Procedure: The cells dislodged from the flask were generally in clumps and were dispersed by repeated forceful pipetting of the suspension against the surface of the flask. To 1 ml of the well-dispersed cell suspension, 0.2 ml of trypan blue solution was added, and the number of cells were counted using a hemacytomer. Each day for the next 3 days, two of the remaining flasks were harvested in the manner just described for determination of cell number. Only data on day three are presented. This method has previously been described by Schinazi, et al., “Effect of Combination of Acyclovir, and Vidarabine or its 5′-monophosphate on Herpes Simplex Viruses in Cell Culture and in Mice,” Antimicrob. Agents Chemother. 22, 499-507 (1982)). Median-Effect Method: EC50 and IC50 values were obtained by analysis of the data using the median-effect equation (Chou, T., et al., “Quantitative Analysis of Dose-Effect Relationships: The Combined Effects of Multiple Drugs or Enzyme Inhibitors,” Adv. Enz. Regul. 22, 27-55 (1984).

[3] = CEM cell proliferation (cytotoxicity) assay; type: cell-based; details: human
Procedure: PBM and CEM Cells Proliferation Assay: The drugs were evaluated for their potential toxic effects on uninfected PHA-stimulated human PBM cells and also in CEM cells. The cells were cultured with and without drug for 6 days at which time aliquots were counted for cell viability as described above. Median-Effect Method: EC50 and IC50 values were obtained by analysis of the data using the median-effect equation (Chou, T., et al., “Quantitative Analysis of Dose-Effect Relationships: The Combined Effects of Multiple Drugs or Enzyme Inhibitors,” Adv. Enz. Regul. 22, 27-55 (1984).

SMILES	inactivation of R17 (ability to form plaques) (RNA virus R17; 0.02 μM methylene blue plus light for 15 min)	PFU (RNA virus R17; MB 0.05 uM, light 1.0 min)	crossing of the blood-milk barrier [1]	methemoglobin production ([2]; doses as high as 50 mg/kg)	hematologic changes ([2]; up to four weeks after a total dose of 30 mg/kg)	overall elimination rate constant [2]	IC50 at 3 days (Toxicity in Vero cells)	IC50 at 6 days [3]
CN(C)c1ccc2nc3ccc(N(C)C)cc3[s+]c2c1.[Cl-] [MB, 3,7-Bis(dimethylamino)phenothiazin-5-ium chloride]	causes inactivation of R17	1.0 × 10^9/ml PFU/ml	crosses the blood-milk barrier easily	minimal methemoglobin production	no hematologic changes	0.0076 ± 0.016 min⁻¹	–	–
Nc1nc2c(ncn2COCCO)c(=O)[nH]1 [ACV, Acyclovir]	–	–	–	–	–	–	1700 µM	> 100 µM

From patent US6346529B1, “Antiviral therapy using thiazine dyes” (Oklahoma Medical Research Foundation, priority 1988, dated 2002)
